In patent US11382946B2, “Multi-functional peptides and use thereof” (NOVACELL TECHNOLOGY INC., priority 2019, dated 2022):
Non-standard residues stand in square brackets, D forms with d. Residues, ends and D or L forms follow the SMILES beside them. *: point of attachment. 2Nal = N[C@@H](Cc1ccc2ccccc2c1)C(=O)O; Nle = CCCC[C@H](N)C(=O)O; Octanoyl = CCCCCCCC(=O)*

Tests used:
S. aureus = assay type: cell-based, Staphylococcus aureus; conditions: 18 h
Procedure: (§1) The present inventors evaluated […] in order to select peptides showing excellent performance among various peptides synthesized in the Example 1. Particularly, in order to measure the antimicrobial activity of the peptide, after preparing Gram-positive bacteria Staphylococcus aureus (S. aureus) and Gram-negative bacteria Pseudomonas aeruginosa (P. aeruginosa), the bacteria were plated on agar plate medium by fourth streaking and cultured overnight in a 36° C. incubator. The next day, the strain colonies produced on the agar plate medium were inoculated into 3 ml nutrient medium and cultured overnight in a stirring incubator at 36° C. and 220 rpm. The next day, the bacteria were diluted to measure absorbance at 600 nm, adjusted to OD600=0.5, and diluted in a 1:100 ratio in nutrient medium. Then, the peptides prepared in the above Examples were serially diluted in concentrations of 0, 1.25, 2.5, 5, 10, and 20 μM in a nutrient medium to prepare 1 ml each, and then inoculated with 1 ml of the diluted bacteria. Subsequently, the mixture was stirred under conditions of 36° C. and 220 rpm, and incubated for 18 hours, and absorbance at 600 nm was measured.
(§2) As a result, 20 peptides showing high antibacterial activity against P. aeruginosa and S. aureus) were selected (FIGS. 2 and 3).

FPR2 = target: T1, FPR2 (Homo sapiens, UniProt P25090); assay: FPR2 activation by intracellular calcium ion increase (Fura-2/AM) in FPR2-RBL cells; assay type: cell-based; conditions: RBL cells overexpressing FPR2
T1 construct: expressed in transfected cells; host or cells: RBL cells overexpressing FPR2 (FPR2-RBL)
T1 sequence (P25090 1-351): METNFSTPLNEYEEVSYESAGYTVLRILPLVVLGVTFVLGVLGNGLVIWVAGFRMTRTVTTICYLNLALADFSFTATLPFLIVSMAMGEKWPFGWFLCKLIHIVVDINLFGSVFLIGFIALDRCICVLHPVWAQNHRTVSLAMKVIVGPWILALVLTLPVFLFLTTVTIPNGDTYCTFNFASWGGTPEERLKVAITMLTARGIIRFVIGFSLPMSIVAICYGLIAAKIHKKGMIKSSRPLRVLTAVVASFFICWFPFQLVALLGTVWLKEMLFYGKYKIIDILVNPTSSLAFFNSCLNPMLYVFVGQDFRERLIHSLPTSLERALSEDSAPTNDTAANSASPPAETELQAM
Procedure: The present inventors observed a change in calcium ion permeability of the candidate peptides according to an embodiment of the present invention in order to determine whether they can activate the immunomodulatory function in a body or not. Particularly, intracellular concentration of calcium ions was measured to confirm that the peptide activates FPR2. RBL cells that do neither express FPR1 nor FPR2, RBL cells overexpressed FPR1 (FPR1-RBL) and RBL cells that overexpressed FPR2 (FPR2-RBL) were used and Fura-2/AM which is a fluorophore having high binding affinity to calcium in order to measure intracellular calcium ion level sensitively. For this purpose, cells were cultured in RPMI medium supplemented with 10% fetal bovine serum and harvested by centrifugation in log phase (mid-log phase, 1-3×10^7 cells/ml), and then washed several times with RPMI medium not supplemented with fetal bovine serum, and then the cells were resuspended in RPMI medium to 1×10^7 cells/ml. Subsequently, a final 3 μM concentration of Fura-2/AM was added and the cells were incubated for 45 minutes in a 37° C., 5% CO2 incubator. After the appropriated time, the cells are harvested, washed again with RPMI medium, and then suspended in the appropriate amount of RPMI medium supplemented with 250 μM of sulfinpyrazone, in order to prevent loss of Fura-2 entering the cells. About 2×10^6 cells were taken each time, harvested by rapid centrifugation, and resuspended in 1 ml of a Locke solution without addition of calcium ions and EGTA added, and the ratio of absorbance at two wavelengths of 340 nm and 380 nm on a spectrophotometer were monitored by treating the peptides according to an embodiment of the present invention at different concentrations (1 μM, 0.1 μM, and 0.01 μM) at intervals of about 1 minute, and then the difference in absorbance at two wavelengths was investigated. It was converted to the concentration of free calcium ions into cells according to the method of Grynkiewicz.

P. aeruginosa = assay type: cell-based, Pseudomonas aeruginosa; conditions: 18 h
Procedure: as §1, §2

SMILES	Antimicrobial activity (IC50, μg/ml) S. aureus (S. aureus)	EC50 (FPR2)	Antimicrobial activity (IC50, μg/ml) P. aeruginosa (P. aeruginosa)
CCCCCCCC(=O)N[C@@H](CCCCN)C(=O)N[C@@H](Cc1ccccc1)C(=O)N[C@@H](CCCCN)C(=O)N[C@@H](Cc1c[nH]c2ccccc12)C(=O)N[C@@H](CCCC)C(=O)N[C@@H](Cc1ccc(O)cc1)C(=O)N[C@H](CCSC)C(N)=O [Peptide V3, Oct-KFKW-Nle-Ym-NH2] (Octanoyl-KFKW[Nle]Y[dM]-NH2)	15.2 µg/mL	107 nM	
CCCCCCCC(=O)N[C@@H](CCCCN)C(=O)N[C@@H](Cc1c[nH]c2ccccc12)C(=O)N[C@@H](CCCCN)C(=O)N[C@@H](Cc1c[nH]c2ccccc12)C(=O)N[C@@H](CCCC)C(=O)N[C@@H](Cc1ccc(O)cc1)C(=O)N[C@H](CCSC)C(N)=O [Peptide V4, Oct-KWKW-Nle-Ym-NH2] (Octanoyl-KWKW[Nle]Y[dM]-NH2)	5.1 µg/mL	64 nM	
CCCCCCCC(=O)N[C@@H](CCCNC(=N)N)C(=O)N[C@@H](Cc1c[nH]c2ccccc12)C(=O)N[C@@H](CCCNC(=N)N)C(=O)N[C@@H](Cc1c[nH]c2ccccc12)C(=O)N[C@@H](CCCC)C(=O)N[C@@H](Cc1ccc(O)cc1)C(=O)N[C@H](CCSC)C(N)=O [Peptide V5, Oct-RWRW-Nle-Ym-NH2] (Octanoyl-RWRW[Nle]Y[dM]-NH2)	2.0 µg/mL	41.5 nM	>50 µg/mL
CCCCCCCC(=O)N[C@@H](CCCCN)C(=O)N[C@@H](Cc1ccccc1)C(=O)N[C@@H](CCCCN)C(=O)N[C@@H](Cc1c[nH]c2ccccc12)C(=O)N[C@@H](CCCNC(=N)N)C(=O)N[C@@H](Cc1ccc(O)cc1)C(=O)N[C@@H](CCSC)C(=O)N[C@H](C(=O)N[C@H](CCSC)C(N)=O)C(C)C [Peptide V6, Oct-KFKWRYMVm-NH2] (Octanoyl-KFKWRYMV[dM]-NH2)	>50 µg/mL	4.2 nM	
CCCCCCCC(=O)N[C@@H](CCCNC(=N)N)C(=O)N[C@@H](Cc1c[nH]c2ccccc12)C(=O)N[C@@H](CCCNC(=N)N)C(=O)N[C@@H](Cc1c[nH]c2ccccc12)C(=O)N[C@@H](CCCNC(=N)N)C(=O)N[C@@H](Cc1ccc(O)cc1)C(=O)N[C@@H](CCSC)C(=O)N[C@H](C(=O)N[C@H](CCSC)C(N)=O)C(C)C [Peptide V8, Oct-RWRWRYMVm-NH2] (Octanoyl-RWRWRYMV[dM]-NH2)	13.0 µg/mL	6.4 nM	24.4 µg/mL
CCCCCCCC(=O)N[C@@H](CCCNC(=N)N)C(=O)N[C@@H](Cc1c[nH]c2ccccc12)C(=O)N[C@@H](CCCNC(=N)N)C(=O)N[C@@H](Cc1c[nH]c2ccccc12)C(=O)N[C@@H](CCCNC(=N)N)C(=O)N[C@@H](Cc1c[nH]c2ccccc12)C(=O)N[C@@H](CCSC)C(=O)N[C@H](C(=O)N[C@H](CCSC)C(N)=O)C(C)C [Peptide V9, Oct-RWRWRWMVm-NH2] (Octanoyl-RWRWRWMV[dM]-NH2)	12.7 µg/mL	4.7 nM	
CCCCCCCC(=O)N[C@@H](CCCNC(=N)N)C(=O)N[C@@H](Cc1c[nH]c2ccccc12)C(=O)N[C@@H](CCCNC(=N)N)C(=O)N[C@@H](Cc1c[nH]c2ccccc12)C(=O)N[C@@H](Cc1ccc2ccccc2c1)C(=O)N[C@@H](Cc1c[nH]c2ccccc12)C(N)=O [Peptide V16, Oct-RWRWZW-NH2] (Octanoyl-RWRW[2Nal]W-NH2)	2.7 µg/mL		7.3 µg/mL
N=C(N)NCCC[C@H](NC(=O)[C@H](Cc1c[nH]c2ccccc12)NC(=O)[C@@H](N)CCCNC(=N)N)C(=O)N[C@@H](Cc1c[nH]c2ccccc12)C(=O)N[C@@H](Cc1ccc2ccccc2c1)C(=O)N[C@@H](Cc1c[nH]c2ccccc12)C(N)=O [Peptide V16_0, RWRWZW-NH2] (H-RWRW[2Nal]W-NH2)	30.2 µg/mL		4.3 µg/mL
CCCCCCCC(=O)N[C@@H](CCCNC(=N)N)C(=O)N[C@@H](Cc1c[nH]c2ccccc12)C(=O)N[C@@H](CCCNC(=N)N)C(=O)N[C@@H](Cc1c[nH]c2ccccc12)C(=O)N[C@@H](Cc1ccc2ccccc2c1)C(=O)N[C@@H](Cc1c[nH]c2ccccc12)C(=O)N[C@H](CCSC)C(N)=O [Peptide V18, Oct-RWRWZWm-NH2] (Octanoyl-RWRW[2Nal]W[dM]-NH2)	2.3 µg/mL	62.8 nM	16.2 µg/mL
CSCC[C@@H](NC(=O)[C@H](Cc1c[nH]c2ccccc12)NC(=O)[C@H](Cc1ccc2ccccc2c1)NC(=O)[C@H](Cc1c[nH]c2ccccc12)NC(=O)[C@H](CCCNC(=N)N)NC(=O)[C@H](Cc1c[nH]c2ccccc12)NC(=O)[C@@H](N)CCCNC(=N)N)C(N)=O [Peptide V18_0, RWRWZWm-NH2] (H-RWRW[2Nal]W[dM]-NH2)	6.8 µg/mL	10 nM	21.1 µg/mL
CSCC[C@@H](NC(=O)[C@H](Cc1c[nH]c2ccccc12)NC(=O)[C@H](CCCNC(=N)N)NC(=O)[C@H](Cc1c[nH]c2ccccc12)NC(=O)[C@H](Cc1c[nH]c2ccccc12)NC(=O)[C@H](CCCNC(=N)N)NC(=O)[C@H](Cc1ccc2ccccc2c1)NC(C)=O)C(N)=O [Peptide V19_Ac, Ac-ZRWWRWm-NH2] (Ac-[2Nal]RWWRW[dM]-NH2)	5.4 µg/mL	69.4 nM	>50 µg/mL
CCCC[C@H](NC(=O)[C@H](Cc1c[nH]c2ccccc12)NC(=O)[C@H](Cc1c[nH]c2ccccc12)NC(=O)[C@H](CCCNC(=N)N)NC(=O)[C@H](Cc1ccc2ccccc2c1)NC(C)=O)C(=O)N[C@@H](Cc1c[nH]c2ccccc12)C(=O)N[C@H](CCSC)C(N)=O [Peptide V20_Ac, Ac-ZRWW-Nle-Wm-NH2] (Ac-[2Nal]RWW[Nle]W[dM]-NH2)	>50 µg/mL	45.3 nM	>50 µg/mL
CSCC[C@@H](NC(=O)[C@@H](NC(=O)[C@H](CCCNC(=N)N)NC(=O)[C@H](Cc1c[nH]c2ccccc12)NC(=O)[C@H](Cc1c[nH]c2ccccc12)NC(=O)[C@H](CCCNC(=N)N)NC(=O)[C@H](Cc1ccc2ccccc2c1)NC(C)=O)C(C)C)C(N)=O [Peptide V21_Ac, Ac-ZRWWRVm-NH2] (Ac-[2Nal]RWWRV[dM]-NH2)	9.4 µg/mL	92.3 nM	>50 µg/mL
CSCC[C@@H](NC(=O)[C@H](Cc1c[nH]c2ccccc12)NC(=O)[C@H](CCCNC(=N)N)NC(=O)[C@H](Cc1c[nH]c2ccccc12)NC(=O)[C@H](Cc1c[nH]c2ccccc12)NC(=O)[C@@H](NC(=O)[C@H](CCCNC(=N)N)NC(=O)[C@H](Cc1c[nH]c2ccccc12)NC(=O)[C@H](Cc1c[nH]c2ccccc12)NC(=O)[C@H](CCCNC(=N)N)NC(=O)[C@H](Cc1ccc2ccccc2c1)NC(C)=O)C(C)C)C(N)=O [Peptide V22_Ac, Ac-ZRWWRVWWRWm-NH2] (Ac-[2Nal]RWWRVWWRW[dM]-NH2)	13.6 µg/mL	16.2 nM	>50 µg/mL
